Data as given in US12325676B2, “Cationic lipid compound and composition for delivery of nucleic acids and use thereof” (Shenzhen Rhegen Biotechnology Co., Ltd., priority 2022, dated 2025).

What was measured:
[1] = Encapsulation rate of mRNA-loaded lipid nanoparticles (Ribogreen kit); assay type: physicochemical
Procedure: (§1) Luciferase mRNA was diluted in 10-100 mM citrate buffer at pH 4.0; the lipid components (cationic lipids shown in the present disclosure: DSPC:cholesterol:PEG lipids (DMG-PEG2000)) were dissolved in ethanol at a molar ratio of 50:10:38.5:1.5.
(§2) 3 mL of a mRNA buffer and 1 mL of a lipid solution were loaded into two 5 mL syringes respectively, and the syringes were installed on a microfluidic syringe pump. Chips were connected to the syringes and syringe pump flow rate was set. Clicking the start button of the syringe pump caused injection into the chip at a flow rate ratio of 3:1. Under observation of the color of the product at the exit of the chip, after discarding the first 5 milky white droplets (about 100 μL), the back-end sample was collected into an EP tube. The collected product was placed in a dialysis bag and dialyzed for 6 h (MWCO: 100 KDa) in 10 mM PBS (pH 7.4) intervals. Subsequently, after being concentrated by ultrafiltration to the desired concentration, the lipid nanoparticles were filtered through a 0.22 μm sterile filter and then stored at 4° C.
(§3) Tests were performed to calculate the encapsulation rate of the products according to the instructions of Ribogreen kit. Particle size and polydispersity index (PDI) detection as well as zeta potential analysis was performed on a Malvern Zetasizer nano instrument using standard assays.

[2] = Particle size, PDI and zeta potential of mRNA-loaded lipid nanoparticles (Malvern Zetasizer nano); assay type: physicochemical
Procedure: as §1, §2, §3

BALB/c mice [3] = assay: In vivo expression of luciferase mRNA delivered by LNP, tail intravenous injection, small animal imaging; conditions: Table 3, 5 μg mRNA, female BALB/c mice, DLin-MC3-DMA = 100
Procedure: LUC-mRNA-lipid nanoparticles containing 5 μg mRNA (see SEQ ID NO: 1 in the Patent Application Publication CN114380724A for the corresponding nucleotide sequence of LUC-mRNA) were injected via tail intravenous injection in 6-8 week old female BALB/c mice, prepared as in Example 19. 100 μg of D-Luciferin Potassium Salt was injected via tail intravenous injection into the mice at specific time points and assayed using the PerkinElmer Small Animal Imaging System. Fluc is commonly used in mammalian cell cultures to measure gene expression and cell viability, and it emits biological fluorescent light in the presence of the substrate […]. The basic characteristics of the mRNA used include ARCA cap structure, polyA tail length of 120 nt, and complete substitution of pseudouridine.
The effect of delivering luciferase mRNA using more cationic lipids were validated according to the methods of Example 20 and Example 21.

BALB/c mice [4] = assay: In vivo expression of luciferase mRNA delivered by LNP, lung nebulization; conditions: LUC-mRNA LNP, 5 μg mRNA, compared with Lipid M and SM-102
Procedure: LUC-mRNA-lipid nanoparticles containing 5 μg mRNA were administrated via lung nebulization in 6-8 week old BALB/c mice, prepared as in Example 19. 100 μg of D-Luciferin Potassium Salt was injected via tail intravenous injection into the mice at specific time points and assayed using the PerkinElmer Small Animal Imaging System.

BALB/c mice [5] = assay: In vivo EPO protein expression after tail i.v. injection of EPO-mRNA LNP, serum ELISA; conditions: 6 hours after tail i.v. injection of 20 μg EPO-mRNA-lipid nanoparticles, female Balb/c mice
Procedure: In the example, the effects of in vivo transfection of erythropoietin (EPO) by various cationic liposomes were compared. Nanoparticles were prepared in the same manner as in Example 20, and the nucleotide sequence corresponding to the EPO mRNA used is given in CN114380724B, SEQ ID NO:2. After preparation, 20 μg of EPO-mRNA-lipid nanoparticles were injected via tail intravenous injection in 6-8 week female Balb/c mice. 6 hours later the mice were subjected to blood sampling from the eye frame. After centrifugation to separate the serum, EPO protein expression was determined using ELISA. The basic characteristics of the mRNA used include ARCA cap structure, polyA tail length of 100-120 nt, and complete substitution of pseudouridine.

[6] = Encapsulation rate of mRNA-loaded lipid nanoparticles (Ribogreen kit); assay type: physicochemical; conditions: Table 4 batch; EPO mRNA LNP prepared as Example 20
[7] = Particle size, PDI and zeta potential of mRNA-loaded lipid nanoparticles (Malvern Zetasizer nano); assay type: physicochemical; conditions: Table 4 batch; EPO mRNA LNP prepared as Example 20
SD rats = assay: Abnormal toxicity of cationic lipid nanoparticles, tail i.v. injection, liver and kidney function; assay type: in vivo; conditions: EPO mRNA LNP, 5 mg/kg tail intravenous injection, female SD rats
Procedure: The nanoparticles prepared in Example 27 were used in this experiment. The nanoparticles were injected via tail intravenous injection at a dose of 5 mg/kg in female SD rats weighing 200-250 g. The […] in the control group were injected with a corresponding volume of normal saline. […] Blood samples were collected at 120 h after injection, and alanine transaminase (ALT), aspartate aminotransferase (AST), urea nitrogen (BUN), and serum creatinine (SCR) were measured using a fully automated biochemistry instrument as the evaluation indexes of hepatic and renal functions.

[8] = Table 1, Luciferase mRNA LNP, cationic lipid:DSPC:cholesterol:DMG-PEG2000 50:10:38.5:1.5 molar
[9] = Table 3 batch, luciferase mRNA LNP prepared as Example 20

| Encapsulation rate (%) [1, 9] | Compound | Encapsulation rate (%) [1, 8] | PDI [2, 8] | Particle size (nm) [2, 8] | Zeta potential (mV) [2, 8] | PDI [2, 9] | Particle size (nm) [2, 9] | relative fluorescence intensity (%) (BALB/c mice [3]) | fluorescent levels of mRNA expression (FIG. 2) (BALB/c mice [4]) | EPO concentration (BALB/c mice [5]) | Encapsulation rate (%) [6] | PDI [7] | Particle size (nm) [7] | death after injection (time) (SD rats) |
| --- | --- | --- | --- | --- | --- | --- | --- | --- | --- | --- | --- | --- | --- | --- |
| 96.8% | CCCCCCCCOCC(C)C(=O)OCCCCCN(CCO)CCCCCCCC(=O)OC(CCCCCCCC)CCCCCCCC (stereo not shown) [Compound 7] | 96.1% | 0.17 | 78.9 nm | −3.77 mV | 0.15 | 82.9 nm | 754 ± 32% | superior to Lipid M and SM-102 | 4.21e+07 pg/mL | 97.8% | 0.09 | 88.8 nm |  |
|  | CCCCC/C=C\C/C=C\CCCCCCCCC(CCCCCCCC/C=C\C/C=C\CCCCC)OC(=O)CCCN(C)C [DLin-MC3-DMA, reference compound] | 87.6% | 0.19 | 102.3 nm | −0.03 mV | 0.16 | 101.5 nm | 100% |  | 4.37e+06 pg/mL | 90.1% | 0.19 | 97.6 nm | ≤ 18 h |
